Holding throughout (assay): relative viability (nuclei count vs DMSO), 5 days (fraction); higher = more cells survive
Compound in assay [1]: C1=CC(=CC=C1C2=CC(=C(S2)NC(=O)N)C(=O)N)F [TPCA-1] + COc1cccc2cc(-c3nc([C@H]4CC[C@H](C(=O)O)CC4)n4ncnc(N)c34)[nH]c12 [OSI-027] (partner 0.5 µM)
Summed up:
(§1)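 Lung cancer cell lines in 1536-well plates got either a single drug or a fixed anchor-drug dose together with five library-drug doses (not always all listed) in √10 steps, by pin tool, on the day after seeding. Nuclei were counted after 5 days, and relative viability is the treated-to-vehicle ratio of nuclei counts. Values are medians of duplicate plates.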

Compound in assay [2]: C1/C(=C\C2=CC=CS2)/C(=O)/C(=C/C3=CC=CS3)/C1 + Cc1cc(Nc2cc(N3CCN(C)CC3)nc(Sc3ccc(NC(=O)C4CC4)cc3)n2)n[nH]1 [Tozasertib] (partner 0.1 µM)
Summed up:
as §1

Compound in assay [3]: C[C@]12O[C@H](C[C@]1(O)CO)n1c3ccccc3c3c4c(c5c6ccccc6n2c5c31)CNC4=O [Lestaurtinib] + CS(=O)(=O)N1CCN(Cc2cc3nc(-c4cccc5[nH]ncc45)nc(N4CCOCC4)c3s2)CC1 [Pictilisib] (partner 1 µM)
Summed up: as §1

Compound in assay [4]: C[C@]12O[C@H](C[C@]1(O)CO)n1c3ccccc3c3c4c(c5c6ccccc6n2c5c31)CNC4=O [Lestaurtinib] + O=C(CCCCCCC(=O)Nc1ccccc1)NO [Vorinostat] (partner 1 µM)
An outline of the steps:
as §1

Relative viability data for seven cell lines are collected here from the supplement of paper PMC10307832.

With NCI-H2087, the relative viability in assay [1] (first compound 0.04 µM) stood at 0.554; in assay [1] (first compound 0.1265 µM), 0.444; in assay [1] (first compound 0.4 µM), 0.537; in assay [1] (first compound 1.265 µM) it was 0.414; in assay [1] (first compound 4 µM), 0.207; in assay [2] (first compound 0.2 µM), 0.404. Further, the relative viability was 0.257 in assay [2] (first compound 0.6325 µM); 0.257 in assay [2] (first compound 2 µM); 0.201 in assay [2] (first compound 6.325 µM); 0.225 in assay [2] (first compound 20 µM); 0.872 in assay [3] (first compound 0.005 µM); 0.745 in assay [3] (first compound 0.01581 µM). Besides, the relative viability in assay [3] (first compound 0.05 µM) is 0.53; in assay [3] (first compound 0.1581 µM), 0.689; in assay [3] (first compound 0.5 µM) it was 0.322; in assay [4] (first compound 0.005 µM) it was 0.815; in assay [4] (first compound 0.01581 µM) it was 0.652; in assay [4] (first compound 0.05 µM), 0.667. Besides, the figures for the relative viability in assay [4] (first compound 0.1581 µM) and in assay [4] (first compound 0.5 µM) were 0.474 and 0.373, respectively.
In the case of NCI-H2126, the relative viability in assay [1] (first compound 0.04 µM) was 0.623; in assay [1] (first compound 0.1265 µM) it was 0.961; in assay [1] (first compound 0.4 µM), 0.786; in assay [1] (first compound 1.265 µM), 0.685; in assay [1] (first compound 4 µM), 0.616; in assay [2] (first compound 0.2 µM), 0.888. The relative viability was found to be 0.831 in assay [2] (first compound 0.6325 µM); 0.878 in assay [2] (first compound 2 µM); 0.814 in assay [2] (first compound 6.325 µM); 0.798 in assay [2] (first compound 20 µM); 0.493 in assay [3] (first compound 0.005 µM); 0.525 in assay [3] (first compound 0.01581 µM). Moreover, the relative viability in assay [3] (first compound 0.05 µM) turned out to be 0.415; in assay [3] (first compound 0.1581 µM), 0.449; in assay [3] (first compound 0.5 µM), 0.411; in assay [4] (first compound 0.005 µM), 0.805; in assay [4] (first compound 0.01581 µM), 0.886; in assay [4] (first compound 0.05 µM), 0.693. Also, the figures for the relative viability in assay [4] (first compound 0.1581 µM) and in assay [4] (first compound 0.5 µM) were 0.599 and 0.465, respectively.
In the case of NCI-H2170, the relative viability in assay [1] (first compound 0.04 µM) amounted to 0.789; in assay [1] (first compound 0.1265 µM), 0.641; in assay [1] (first compound 0.4 µM) it was 0.716; in assay [1] (first compound 1.265 µM), 0.584; in assay [1] (first compound 4 µM) it was 0.396; in assay [2] (first compound 0.2 µM) it was 0.689. Moreover, the relative viability in assay [2] (first compound 0.6325 µM) came out at 0.716; in assay [2] (first compound 2 µM) it was 0.73; in assay [2] (first compound 6.325 µM), 0.563; in assay [2] (first compound 20 µM), 0.728; in assay [3] (first compound 0.005 µM) it was 0.285; in assay [3] (first compound 0.01581 µM) it was 0.257. The relative viability in assay [3] (first compound 0.05 µM) was 0.304; in assay [3] (first compound 0.1581 µM), 0.293; in assay [3] (first compound 0.5 µM), 0.223; in assay [4] (first compound 0.005 µM) it was 0.745; in assay [4] (first compound 0.01581 µM), 0.69; in assay [4] (first compound 0.05 µM), 0.536. Moreover, the relative viability in assay [4] (first compound 0.1581 µM) amounted to 0.521; in assay [4] (first compound 0.5 µM) it was 0.199.
As to NCI-H2228, the relative viability was 0.774 in assay [1] (first compound 0.04 µM); 0.503 in assay [1] (first compound 0.1265 µM); 0.519 in assay [1] (first compound 0.4 µM); 0.633 in assay [1] (first compound 1.265 µM); 0.283 in assay [1] (first compound 4 µM); 0.239 in assay [2] (first compound 0.2 µM). In addition, the relative viability in assay [2] (first compound 0.6325 µM) is 0.235; in assay [2] (first compound 2 µM), 0.246; in assay [2] (first compound 6.325 µM), 0.145; in assay [2] (first compound 20 µM) it was 0.261; in assay [3] (first compound 0.005 µM) it was 0.461; in assay [3] (first compound 0.01581 µM) it was 0.551. The relative viability is 0.332 in assay [3] (first compound 0.05 µM); 0.325 in assay [3] (first compound 0.1581 µM); 0.198 in assay [3] (first compound 0.5 µM); 0.601 in assay [4] (first compound 0.005 µM); 0.779 in assay [4] (first compound 0.01581 µM); 0.352 in assay [4] (first compound 0.05 µM). Further, the relative viability in assay [4] (first compound 0.1581 µM) was determined as 0.228; in assay [4] (first compound 0.5 µM) it was 0.211.
Regarding NCI-H2347, the relative viability in assay [1] (first compound 0.04 µM) was determined as 0.442; in assay [1] (first compound 0.1265 µM), 0.483; in assay [1] (first compound 0.4 µM) it was 0.43; in assay [1] (first compound 1.265 µM), 0.346; in assay [1] (first compound 4 µM) it was 0.518; in assay [2] (first compound 0.2 µM), 0.666. For the same cell line, the relative viability in assay [2] (first compound 0.6325 µM) was determined as 0.574; in assay [2] (first compound 2 µM), 0.596; in assay [2] (first compound 20 µM), 0.738; in assay [3] (first compound 0.005 µM), 0.692; in assay [3] (first compound 0.01581 µM), 0.996; in assay [3] (first compound 0.05 µM), 0.485. Also, the relative viability came to 0.472 in assay [3] (first compound 0.1581 µM); 0.532 in assay [3] (first compound 0.5 µM); 0.508 in assay [4] (first compound 0.005 µM); 0.643 in assay [4] (first compound 0.01581 µM); 0.555 in assay [4] (first compound 0.05 µM); 0.469 in assay [4] (first compound 0.1581 µM). The relative viability in assay [4] (first compound 0.5 µM) was found to be 0.503.
With NCI-H2405, the relative viability was determined as 0.673 in assay [1] (first compound 0.04 µM); 0.6 in assay [1] (first compound 0.1265 µM); 0.65 in assay [1] (first compound 0.4 µM); 0.36 in assay [1] (first compound 1.265 µM); 0.629 in assay [1] (first compound 4 µM); 0.775 in assay [2] (first compound 0.2 µM). Also, the relative viability in assay [2] (first compound 0.6325 µM) was found to be 0.774; in assay [2] (first compound 2 µM), 0.862; in assay [2] (first compound 6.325 µM), 0.72; in assay [2] (first compound 20 µM), 0.76; in assay [3] (first compound 0.005 µM) it was 0.417; in assay [3] (first compound 0.01581 µM), 0.404. For the same cell line, the relative viability in assay [3] (first compound 0.05 µM) was 0.356; in assay [3] (first compound 0.1581 µM), 0.345; in assay [3] (first compound 0.5 µM), 0.202; in assay [4] (first compound 0.005 µM) it was 1.03; in assay [4] (first compound 0.01581 µM), 1.29; in assay [4] (first compound 0.05 µM) it was 0.88. In addition, the relative viability in assay [4] (first compound 0.1581 µM) was 0.938; in assay [4] (first compound 0.5 µM) it was 0.253.
Take NCI-H3122: the relative viability in assay [1] (first compound 0.04 µM) stood at 1.29; in assay [1] (first compound 0.1265 µM), 0.837; in assay [1] (first compound 0.4 µM), 0.954; in assay [1] (first compound 1.265 µM), 0.854; in assay [1] (first compound 4 µM) it was 0.517; in assay [2] (first compound 0.2 µM) it was 0.393. Besides, the relative viability turned out to be 0.498 in assay [2] (first compound 0.6325 µM); 0.396 in assay [2] (first compound 2 µM); 0.391 in assay [2] (first compound 6.325 µM); 0.442 in assay [2] (first compound 20 µM); 0.671 in assay [3] (first compound 0.005 µM); 0.798 in assay [3] (first compound 0.01581 µM). For the same cell line, the relative viability stood at 0.628 in assay [3] (first compound 0.05 µM); 0.45 in assay [3] (first compound 0.1581 µM); 0.423 in assay [3] (first compound 0.5 µM); 1.16 in assay [4] (first compound 0.005 µM); 1.11 in assay [4] (first compound 0.01581 µM); 0.858 in assay [4] (first compound 0.05 µM). The relative viability is 1.14 in assay [4] (first compound 0.1581 µM) and 0.442 in assay [4] (first compound 0.5 µM).
